Columns and labels:
[1] = target: T1, C. elegans ACAD10 KD (ACAD10 kinase domain) (Caenorhabditis elegans, UniProt O01590); assay: […] incorporation, TLC, phosphorimaging; format: biochemical; conditions: [γ-32P]ATP
T1 construct: gene acds-10; kinase domain, residues 209-568, purified
T1 sequence (O01590 209-568): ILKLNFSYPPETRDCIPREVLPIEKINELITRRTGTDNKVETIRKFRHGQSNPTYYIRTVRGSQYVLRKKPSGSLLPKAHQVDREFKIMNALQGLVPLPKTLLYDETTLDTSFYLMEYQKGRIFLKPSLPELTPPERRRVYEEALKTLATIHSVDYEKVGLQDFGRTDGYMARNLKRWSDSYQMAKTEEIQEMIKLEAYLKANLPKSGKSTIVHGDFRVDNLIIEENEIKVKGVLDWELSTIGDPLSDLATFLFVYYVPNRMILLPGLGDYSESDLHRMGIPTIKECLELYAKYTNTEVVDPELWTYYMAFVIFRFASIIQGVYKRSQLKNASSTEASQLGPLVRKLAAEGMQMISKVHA

[2] = target: T2, C. elegans ACAD10 phosphatase domain (Caenorhabditis elegans, UniProt O01590); assay: dephosphorylation of […]-labelled lipid, TLC, phosphorimaging; format: biochemical; conditions: labelled compound; Mg2+
T2 construct: gene acds-10; phosphatase domain, residues 1-212
T2 sequence (O01590 1-212): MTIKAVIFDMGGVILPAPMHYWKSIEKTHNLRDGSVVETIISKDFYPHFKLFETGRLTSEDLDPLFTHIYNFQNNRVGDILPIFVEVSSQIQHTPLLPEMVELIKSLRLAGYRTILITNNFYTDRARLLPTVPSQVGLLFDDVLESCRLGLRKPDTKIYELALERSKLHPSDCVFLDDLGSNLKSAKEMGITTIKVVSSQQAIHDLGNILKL

[3] = target: T3, C. thermarum ACAD10 kinase domain (Caldalkalibacillus thermarum, UniProt F5L6J0); assay: X-ray crystallography, […] Å; format: binding; conditions: nucleotide groove between N- and C-lobe; Mg2+ and acetyl-CoA in crystallization, neither seen
T3 construct: gene CathTA2_1440; purified prokaryotic ACAD10 kinase domain homolog; HYDxK motif with D214/K216, N219, DWE motif D234-E236, R61, E78

[4] = target: T1, C. elegans ACAD10 KD (ACAD10 kinase domain); assay: […] incorporation into lipid, TLC; format: biochemical; conditions: activator; purified domain with mouse liver mitochondrial extract as lipid source; Mg2+
[5] = target: T3, C. thermarum ACAD10 kinase domain; assay: […] incorporation, TLC, phosphorimaging; format: biochemical; conditions: activator; binding site only modelled, no density in crystal

CCCCCCCCCCCCCCCCOCC(O)CO (racemic) [chimyl alcohol, 1-O-hexadecyl-rac-glycerol]
32P incorporation, TLC, phosphorimaging [1]: C. elegans ACAD10 phosphorylated chimyl alcohol (1-O-hexadecyl-rac-glycerol) (Figure 1G)

CCCCCCCCCCCCCCCCOC[C@H](COP(=O)(O)O)OC(C)=O [1-alkyl (16:0), 2-acetyl (2:0), 1-O-alkyl-2-acetyl-sn-glycero-3-phosphate]
dephosphorylation of 32P-labelled lipid, TLC, phosphorimaging [2]: phosphatase domain selectively dephosphorylated 1-O-alkyl-2-acetyl-sn-glycero-3-phosphate but not 1-O-alkyl-2-acyl-sn-glycero-3-phosphate

Nc1ncnc2c1ncn2[C@@H]1O[C@H](COP(=O)(O)OP(=O)(O)NP(=O)(O)O)[C@@H](O)[C@H]1O [AMP-PNP]
X-ray crystallography, 2.15 Å [3]: crystal structure of the Caldalkalibacillus thermarum ACAD10 kinase domain bound to the ATP analog AMP-PNP

CC(=O)SCCNC(=O)CCNC(=O)[C@H](O)C(C)(C)COP(=O)(O)OP(=O)(O)OC[C@H]1O[C@@H](n2cnc3c(N)ncnc32)[C@H](O)[C@@H]1OP(=O)(O)O [acetyl-CoA]
32P incorporation into lipid, TLC [4]: In addition to acetyl-CoA, CoA alone or other CoA thioesters also activated
32P incorporation, TLC, phosphorimaging [5]: acetyl-CoA stimulates C. thermarum ACAD10 kinase domain

Source: article doi:10.1101/2025.09.10.675409, “ACAD10 encodes two orphan enzymes in the ether lipid biosynthetic and salvage pathways” (bioRxiv, 2026)
